According to patent US12622915B2, “Methods of treating PDE IV-mediated diseases or conditions” (Vanda Pharmaceuticals Inc., priority 2020, dated 2026):

What was measured:
[1] = tested on: IMQ induced psoriasis
Protocol: Test Item Details • 1. Dexamethasone Cat. or Batch no.: BCBM4557V (sigma) • Vehicle for dexamethasone (Veh.1): acetone:ethanol (1:1) • Dose: 0.1 mg/ear & 0.25 mg in back skin • Dose volume: 20 μL/ear & 50 μL on back skin • 2. Crisaborole: PZ0037 (Sigma) • Vehicle (Veh.1): acetone:ethanol (1:1) • Dose: 0.1 mg/ear & 0.25 mg in back skin • Dose volume: 20 μL/ear, 50 μL on back skin • 3. Compound of Formula (I) • Vehicle (Veh.1): acetone:ethanol (1:1) • Dose: 0.1 mg/ear & 0.25 mg in back skin • Dose volume: 20 μL/ear, 50 μL on back skin Dexamethasone and Test Item Preparation and Application: • Strength=5 mg/ml
Application=100 μg/20 pit per each ear+250 μg/50 μL on the back G2 to G4 receive Dexamethasone, Crisaborole or test item: Daily topical treatment (D0-D6): 0.1 mg in 20 μl per ear x both the ears+0.25 mg in 50 μl (on the back) 6-8 hrs after IMQ application.
Disease Induction: Application of 5% IMQ cream 40 mg (back) and 5 mg (per ear—Inner surface) daily from day 0-6.
Treatment: 0.5% Dexamethasone solution: 0.25 mg (back) and 0.1 mg (per ear) 8 hrs post IMQ. • Day −2—Depilation on back region • Day 0—Observations (Body weight; ear thickness using digital microcaliper) • Day 2—Observations (Body weight; ear thickness using digital microcaliper) • Day 4—Observations (Body weight; ear thickness using digital microcaliper) • Day 6—Observations (Body weight; ear thickness using digital microcaliper); Blood collection (PK) and Termination {2 hrs after last dose) • Ear collection: PK, Cytokine, MPO, Thickness • Back skin collection, scoring and thickness measurement • Histopathology (optional)
The dorsal posterior area (2 cm×2 cm) of animals is depilated using a hair trimmer. 5% Imiquimod cream: 50 mg/animal (40 mg on the shaved back+5 mg each on the inner part of right and left ear) QD is applied on days 0 to 5 (Groups 1-4).
The body weight is recorded individually for all animals at receipt, day of randomization, prior to treatment, and once in two days thereafter. The animals are observed for mortality at regular intervals.
2 hrs post compound treatment on day 6, all the animals are euthanized, and ear tissues are collected. The right ear is flash frozen in liquid nitrogen and stored at −80° C. until homogenization for MPO and cytokine estimation.
The half of the left ear is used for drug concentration measurement. The other half of the left ear tissue is used for histopathology. The back skin is collected for visual assessment (scoring) and histopathology.
MPO analysis: Snap frozen ear tissue samples are homogenized in 1× assay buffer provided in the kit. The homogenates are centrifuged at 8000 g for 10 minutes in a refrigerated centrifuge. The supernatants are discarded, and the pellet is resuspended in solubilisation buffer (1× assay buffer containing 0.5% HTABr). The samples are homogenized and subjected to three rounds of freeze thaw followed by brief sonication for 10s. The samples are centrifuged at 12,000 g for 10 minutes in a refrigerated centrifuge and the resulting supernatants are analysed for MPO levels based on a fluorometric detection kit. The Kit utilizes a non-fluorescent detection reagent, which is oxidized in the presence of hydrogen peroxide and MPO to produce its fluorescent analogue. (Enzo Life Sciences; ADI-907-029).
Histopathology: At study termination, posterior dorsal skin and ear skin samples are collected. Skin samples are processed using routine histopathological methods and 4-5 μm paraffin sections are prepared. Tissue sections (3 serial sections/animal) are stained with Hematoxylin and eosin (H&E) to evaluate acanthosis, hyper/parakeratosis and inflammatory cellular infiltration in dermis. Severity of lesions are assessed semi quantitatively on a scale of 0-4 by two independent pathologists (0—normal, 1—mild degree, 2—moderate degree, 3—severe degree and 4—extensive or multiple locations) for each parameter in a blinded manner.

[2] = target: T1, Phosphodiesterase PDE4D2 (Homo sapiens, UniProt Q08499); test: Phosphodiesterase PDE4D2 enzyme assay; assay type: biochemical
T1 construct: host or cells: insect Sf9 cells
Protocol: Roliprami is used as a reference standard.
PDE4 assays are performed using methods adapted from the literature. See Houslay MD (2005) The long and short of vascular smooth muscle phosphodiesterase-4 as a putative therapeutic target. Mol Pharmacol. 68(3):563-567; MacKenzie S J and Houslay M D (2000) Action of rolipram on specific PDE4 cAMP phosphodiesterase isoforms and on the phosphorylation of cAMP-response element-binding protein (CREB) and p38 mitogen-activated protein (MAP) kinase in U937 monocytic cells. Biochem J. 347(Pt 2): 571-578.
Phosphodiesterase PDE4D2: • Source: Human recombinant insect Sf9 cells • Substrate: 0.10 μM FAM-cAMP • Vehicle: 1.00% DMSO • Significance Crit.: ≥50% of max stimulation or inhibition • Incubation Buffer: 10 mM Tris-HCl, pH 7.2, 10 mM MgCl2, 0.05% NaN3, 0.1% phosphate-free BSA • Quantitation Method: Quantitation of Fluorescein-AMP-IMAP • Pre-Incub. Time/Temp: 15 minutes @25° C. • Incubation Time/Temp: 15 minutes @25° C.
IC50 values are determined by a non-linear, least squares regression analysis using MathIQ™ (ID Business Solutions Ltd., UK). Where inhibition constants (Ki) are presented, the Ki values are calculated using the equation of Cheng and Prusoff (Cheng, Y., Prusoff, W.H., Biochem. Pharmacol. 22:3099-3108, 1973) using the observed IC50 of the tested compound, the concentration of radioligand employed in the assay, and the historical values for the KD of the ligand (obtained experimentally at Eurofins Panlabs, Inc.). Where presented, the Hill coefficient (nH), defining the slope of the competitive binding curve, is calculated using MathIQ™. […] Where IC50, Ki, and/or nH data are presented without Standard Error of the Mean (SEM), data are insufficient to be quantitative, and the values presented (Ki, IC50, nH) are interpreted with caution.

[3] = topical 0.5%, ear skin, vs IMQ control
[4] = topical 0.5%, maximum score 16, vs IMQ control

T1 sequence (Q08499 303-809 limits assumed): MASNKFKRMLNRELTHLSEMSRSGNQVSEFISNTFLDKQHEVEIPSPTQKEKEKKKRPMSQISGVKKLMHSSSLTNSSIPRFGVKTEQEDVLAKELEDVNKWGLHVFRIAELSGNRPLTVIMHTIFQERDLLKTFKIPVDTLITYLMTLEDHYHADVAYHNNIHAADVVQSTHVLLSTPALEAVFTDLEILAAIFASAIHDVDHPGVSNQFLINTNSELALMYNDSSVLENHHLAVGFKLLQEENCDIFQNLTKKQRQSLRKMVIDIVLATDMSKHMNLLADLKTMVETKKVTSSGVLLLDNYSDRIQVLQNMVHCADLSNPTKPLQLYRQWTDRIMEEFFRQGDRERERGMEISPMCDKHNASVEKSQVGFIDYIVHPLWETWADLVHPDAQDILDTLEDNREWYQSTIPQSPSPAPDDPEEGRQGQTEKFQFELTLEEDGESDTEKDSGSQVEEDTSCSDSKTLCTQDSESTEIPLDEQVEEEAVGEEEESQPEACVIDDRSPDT

inhibition at 0.03 µM ([2]; 0.03 μM, N=2, Example 5): 70%
inhibition at 0.1 µM ([2]; 0.1 μM, N=2, Example 5): 83%
inhibition at 0.3 µM ([2]; 0.3 μM, N=2, Example 5): 91%
inhibition at 1 µM ([2]; 1 μM, N=2, Example 5): 96%
inhibition at 3 µM ([2]; 3 μM, N=2, Example 5): 97%
inhibition at 10 µM ([2]; 10 μM (first line, r2), N=2, Example 5): 99%
IC50 ([2]; Example 5): 6.19 nM
SMILES: CNc1nc(Nc2ccccc2)nc(OCC(F)(F)C(F)F)n1 [compound of Formula (I), N^2-methyl-N^4-phenyl-6-(2,2,3,3-tetrafluoropropoxy)-1,3,5-triazine-2,4-diamine]
MPO activity in ear tissue homogenates ([1]; day 6, topical 0.5%, vs IMQ control): do not show significant inhibition
Back skin thickness ([1]; day 6 at termination, topical 0.5%, vs IMQ control): do not show significant reduction
Body weight / body weight loss ([1]; mouse, in vivo): significantly less
Cumulative clinical scores (erythema, skin thickness, scales) ([1]; topical 0.5%, back skin, maximum score 12, vs IMQ control): does not show any significant reduction
Extent of acanthosis, back skin (histopathology) ([1]; topical 0.5%, back skin, vs IMQ control): reduction
Ear thickness ([1]; topical 0.5%, daily, vs IMQ control): significant reduction in ear thickness on day 6
Cellular infiltration, ear (histopathology) [1, 3]: significant reduction
Extent of acanthosis, ear (histopathology) [1, 3]: significant reduction
Cumulative HP score of back skin [1, 4]: significant reduction
Overall cumulative HP scores of ear skin [1, 4]: significant reduction
Spleen weight or normalized spleen weight ([1]; topical 0.5%, vs IMQ control): do not show significant reduction
Cytokine levels in ear tissue homogenates ([1]; topical treatment, vs IMQ control): significant reduction in few of the proinflammatory cytokines
